In patent US20250228862A1, “METHODS OF USING ATR INHIBITORS” (Repare Therapeutics Inc., priority 2022, published 2025):

Legend:
[1] = tested on: ARID1A wild-type (WT) and knockout (ARID1A−/−) BEAS2B cells; assay: IncuCyte growth (confluency), isogenic ARID1A WT and -/- BEAS2B; assay type: cell-based, human; conditions: BEAS2B ARID1A−/− vs WT
Protocol: FIG. 11C: Dose-response curves of isogenic ARID1A wild-type (WT) and knockout (ARID1A−/−) BEAS2B cells treated with AZD-6738. Cell growth (confluency) was measured by IncuCyte automated microscopy. Data (circles) were fitted to a four-parameter dose-response model (solid lines).
(§1) In addition to the genes disclosed herein, we investigated ATRi sensitivity to the loss of ARID1A, which was previously described in Williamson et al., Nat. Comms., 7:13837, 2016, as a bona fide biomarker of ATRi sensitivity. Three isogenic ARID1A wild-type (WT) and ARID1A-deficient (ARID1A−/−) human cell line pairs were employed: HCT116, MCF10A and BEAS2B. […] To strengthen this observation, we assembled a panel of tissue-matched cancer cell lines that were either ARID1A WT or carried deleterious ARID1A alterations (LOF) and measured their sensitivity to AZD-6738. […] In aggregate, we believe that the genes named in this Application present a list of bona fide determinants of ATRi sensitivity as opposed to certain 5 biomarkers described in the scientific literature.

[2] = tested on: ARID1A wild-type (WT) and knockout (ARID1A−/−) MCF1A cells; assay: IncuCyte growth (confluency), isogenic ARID1A WT and -/- MCF10A; assay type: cell-based, human; conditions: MCF10A ARID1A−/− vs WT
Protocol: FIG. 11B: Dose-response curves of isogenic ARID1A wild-type (WT) and knockout (ARID1A−/−) MCF1A cells treated with AZD-6738. Cell growth (confluency) was measured by IncuCyte automated microscopy. Data (circles) were fitted to a four-parameter dose-response model (solid lines).
as §1

[3] = tested on: ARID1A wild-type (WT) and knockout (ARID1A−/−) HCT116 cells; assay: IncuCyte growth (confluency), isogenic ARID1A WT and -/- HCT116; assay type: cell-based, human; conditions: HCT116 ARID1A−/− vs WT
Protocol: FIG. 11A: Dose-response curves of isogenic ARID1A wild-type (WT) and knockout (ARID1A−/−) HCT116 cells treated with AZD-6738. Cell growth (confluency) was measured by IncuCyte automated microscopy. Data (circles) were fitted to a four-parameter dose-response model (solid lines).
as §1

[4] = tested on: cancer cell lines either wild-type for ARID1A (WT) or carrying deleterious ARID1A alterations (LOF); assay: IncuCyte growth assays in ARID1A WT and LOF cancer cell line panel; assay type: cell-based; conditions: tissue-matched cancer cell line panel
Description: FIG. 12: EC50 values for the ATRI AZD-6738 from IncuCyte growth assays in a panel of cancer cell lines either wild-type for ARID1A (WT) or carrying deleterious ARID1A alterations (LOF). Data (circles) from two independent experiments with mean (bars)±SD (error bars).
as §1

## C[C@@H]1COCCN1c1cc(C2([S@](C)(=N)=O)CC2)nc(-c2cc[nH]c3nccc2-3)n1 [AZD-6738]
[1]
  Sensitivity upon ARID1A deficiency: did not lead to sensitivity
[2]
  Sensitivity upon ARID1A deficiency: did not lead to sensitivity
[3]
  Sensitivity upon ARID1A deficiency: did not lead to sensitivity
[4]
  Sensitivity (EC50) of ARID1A LOF vs ARID1A WT cell lines: no significant trend towards higher ATRi sensitivity in ARID1A LOF cell lines
